In patent US8394959B2, “Maleate salts of (E)-N-{4-[3-chloro-4-(2-pyridinylmethoxy)anilino]-3-cyano-7-ethoxy-6-quinolinyl)-4-(dimethylamino)-2-buteramide and crystalline forms thereof” (Wyeth LLC, priority 2007, dated 2013):
Values after ≈ are worked out from the molar mass of the structure shown. Where two headings read alike, the source gives them in different places.

Tests used:
[1] = 20-25° C., relative humidity 50-60%, 24 hours, XRD
Protocol: FIG. 7 illustrates an XRD scan of crystalline (E)-N-{4-[3-chloro-4-(2-pyridinylmethoxy)anilino]-3-cyano-7-ethoxy-6-quinolinyl}-4-(dimethylamino)-2-butenamide maleate in Form II, before and after exposure to relative humidity of 50-60% at an ambient temperature of 20-25° C. for 24 hours.
FIG. 8 is an XRD scan of crystalline (E)-N-{4-[3-chloro-4-(2-pyridinylmethoxy)anilino]-3-cyano-7-ethoxy-6-quinolinyl}-4-(dimethylamino)-2-butenamide maleate in Form I before (lower scan), and after (upper scan) exposure to relative humidity of 50-60% at room temperature of 20-25° C. for 24 hours.

[2] = Solid state stability in closed and open containers at 40° C. and 75% RH; type: physicochemical; conditions: for time remained stable: closed and open containers at 40° C. and 75% RH
From the text: Both Form I and Form II remained stable for 6 months under these conditions. […] Samples in the closed containers remained dry. HPLC purity analysis indicated no significant increase in degradation products in both open and closed conditions for up to 6 months.

[3] = Dynamic vapor sorption (DVS) hygroscopicity; type: physicochemical; conditions: DVS isotherm, FIG. 2
From the text: The relative stability and hygroscopicity of the two crystalline forms of the maleate salt was studied in detail by dynamic vapor sorption (DVS).

[4] = Stability of crystalline forms of the reslurry at room temperature for 14 days; type: physicochemical; conditions: reslurry in Ethyl acetate
From the text: In one embodiment the re-slurry is allowed to stand for about 14 days.

[5] = Compound pharmacokinetics (systemic exposure) in rats; type: in vivo, rat; design: AUC/Dose: unit not given here; conditions: for AUC(0-t): read-out: AUC0-24
[6] = Physicochemical properties of maleate salt pilot batches; conditions: for Aqueous Solubility: footnote: s the free base
[7] = Salt form screen: physicochemical properties (solubility, pH, hygroscopicity); conditions: for pH: Table 1, pH of the solution
[8] = Solubility comparison of free base and maleate salt; conditions: for pH of solution in 2% Tween 80 in water: solvent 2% Tween 80 in water; for pH of solution in Water: solvent water
[9] = test system: emectic receptors in the stomach; test: Emectic receptor interaction / diarrhea in mammals; type: in vivo; conditions: in words
[10] = physchem; conditions: aqueous with cosolvent or surfactant or cyclodextrin
[11] = Water solubility and BCS classification of the free base; type: physicochemical
From the text: Pat. […] The compound is classified, based on the Biopharmaceutical Classification System, as a BCS Class IV compound (low water solubility and low permeability). […] The water solubility increases with decreasing pH as the compound becomes ionized. This compound is […] rate limiting. There is a need for a form of this compound with improved physicochemical properties.

[12] = Closed Vial at 40° C./75% RH, 1 week in storage
[13] = Closed Vial at 40° C./75% RH, 2 weeks in storage
[14] = Closed Vial at 40° C./75% RH, 4 weeks in storage
[15] = Closed Vial at 40° C./75% RH, 12 weeks in storage
[16] = Closed Vial at 40° C./75% RH, 24 weeks in storage
[17] = Closed Vial at 40° C./75% RH, Initial
[18] = Open Vial at 40° C./75% RH, 1 week in storage
[19] = Open Vial at 40° C./75% RH, 2 weeks in storage
[20] = Open Vial at 40° C./75% RH, 4 weeks in storage
[21] = Open Vial at 40° C./75% RH, 12 weeks in storage
[22] = Open Vial at 40° C./75% RH, 24 weeks in storage
[23] = Open Vial at 40° C./75% RH, Initial
[24] = plasma, oral, rat Female, 5 mg/kg, Day 28, mean (SE), N 3
[25] = plasma, oral, rat Male, 5 mg/kg, Day 28, mean (SE), N 3
[26] = plasma, rat Female, 15 mg/kg, Day 28, mean (SE), N 3
[27] = plasma, rat Male, 15 mg/kg, Day 28, mean (SE), N 3
[28] = pilot batch Run 1, batch size 0.5 g
[29] = pilot batch Run 2, batch size 6.6 g
[30] = pilot batch Run 3, batch size 4 g
[31] = plasma, oral, rat Male, 100 mg/kg, Day 10, mean (SE), N 3
[32] = plasma, rat Female, 30 mg/kg, Day 10, mean (SE), N 3
[33] = plasma, rat Male, 10 mg/kg, Day 10, mean (SE), N 3
[34] = plasma, rat Male, 30 mg/kg, Day 10, mean (SE), N 3

With `CCOc1cc2ncc(C#N)c(Nc3ccc(OCc4ccccn4)c(Cl)c3)c2cc1NC(=O)/C=C/CN(C)C.O.O=C(O)/C=C\C(=O)O` [Form II] the “form stability on exposure to ambient humidity” value [1] was “relatively stable”, the time remained stable [2] was 6 months and the “relative humidity at which water is lost” value ([3]; especially at 10% RH and below) was at most 20 % RH.

With `CCOc1cc2ncc(C#N)c(Nc3ccc(OCc4ccccn4)c(Cl)c3)c2cc1NC(=O)/C=C/CN(C)C.O=C(O)/C=C\C(=O)O` [Form I] the Moisture [2, 12] was 0.39%, the “Potency (dry basis)” value [2, 12] was 100.46% and the Potency as is [2, 12] was 100.07%. The Total impurities [2, 12] was 0.57%, the Moisture [2, 13] was 0.34% and the “Potency (dry basis)” value [2, 13] was 100.38%. For the same compound, the Potency as is [2, 13] was 100.03%, the Total impurities [2, 13] was 0.64% and the Moisture [2, 14] was 0.22%. The “Potency (dry basis)” value [2, 14] was 97.09%, the Potency as is [2, 14] was 96.87% and the Total impurities [2, 14] was 0.61%. For the same compound, the Moisture [2, 15] was 0.46%, the “Potency (dry basis)” value [2, 15] was 100.67% and the Potency as is [2, 15] was 100.21%. The Total impurities [2, 15] was 0.66%, the Moisture [2, 16] was 0.16% and the “Potency (dry basis)” value [2, 16] was 99.12%. The Potency as is [2, 16] was 98.96%, the Total impurities [2, 16] was 0.68% and the Moisture [2, 17] was 0.35%. For the same compound, the “Potency (dry basis)” value [2, 17] was 100.85%, the Potency as is [2, 17] was 100.50% and the Total impurities [2, 17] was 0.57%. The Moisture [2, 18] was 2.82%, the “Potency (dry basis)” value [2, 18] was 102.01% and the Potency as is [2, 18] was 99.13%. For the same compound, the Total impurities [2, 18] was 0.55%, the Moisture [2, 19] was 2.86% and the “Potency (dry basis)” value [2, 19] was 100.37%. It also gave a Potency as is [2, 19] of 97.50%, a Total impurities [2, 19] of 0.65% and a Moisture [2, 20] of 2.74%. The “Potency (dry basis)” value [2, 20] was 97.96%, the Potency as is [2, 20] was 95.27% and the Total impurities [2, 20] was 0.58%. For the same compound, the Moisture [2, 21] was 2.98%, the “Potency (dry basis)” value [2, 21] was 101.13% and the Potency as is [2, 21] was 98.12%. For the same compound, the Total impurities [2, 21] was 0.65%, the Moisture [2, 22] was 2.79% and the “Potency (dry basis)” value [2, 22] was 100.01%. The Potency as is [2, 22] was 97.22%, the Total impurities [2, 22] was 0.69% and the Moisture [2, 23] was 0.35%. For the same compound, the “Potency (dry basis)” value [2, 23] was 100.85%, the Potency as is [2, 23] was 100.50% and the Total impurities [2, 23] was 0.57%. For the same compound, the time remained stable [2] was 6 months, the “water uptake in open containers” value ([2]; open containers at 40° C. and 75% RH) was “rapidly absorbed one mole of water to form the monohydrate form” and the “Final Form, wet cake” value [4] was “I + some II”. For the same compound, the “relative humidity at which moisture is gained” value ([3]; especially at 60% RH and above) was “above 40 % relative humidity (RH)”.

`CCOc1cc2ncc(C#N)c(Nc3ccc(OCc4ccccn4)c(Cl)c3)c2cc1NC(=O)/C=C/CN(C)C.O=C(O)/C=C\C(=O)O` [Maleate salt] gave a Cmax [5, 24] of 1380 ng/mL, an AUC(0-t) [5, 24] of 9530 ng·h/mL and an AUC(0-t) ([5]; plasma, oral, rat Female, 45 mg/kg, Day 28, mean (SE), N 3) of 75600 ng·h/mL. It also gave a Cmax [5, 25] of 1200 ng/mL, an AUC(0-t) [5, 25] of 8220 ng·h/mL and an AUC(0-t) ([5]; plasma, oral, rat Male, 45 mg/kg, Day 28, mean (SE), N 3) of 65100 ng·h/mL. For the same compound, the Cmax [5, 26] was 3560 ng/mL, the AUC(0-t) [5, 26] was 34200 ng·h/mL and the Cmax ([5]; plasma, rat Female, 45 mg/kg, Day 28, mean (SE), N 3) was 4560 ng/mL. The Cmax [5, 27] was 3420 ng/mL, the AUC(0-t) [5, 27] was 30200 ng·h/mL and the Cmax ([5]; plasma, rat Male, 45 mg/kg, Day 28, mean (SE), N 3) was 4620 ng/mL. The AUC/Dose ([5]; rat Female, 5 mg/kg, Day 28, mean (SE), N 3) was 1907 (169), the AUC/Dose ([5]; rat Female, 15 mg/kg, Day 28, mean (SE), N 3) was 2278 (177) and the AUC/Dose ([5]; rat Female, 45 mg/kg, Day 28, mean (SE), N 3) was 1681 (141). For the same compound, the AUC/Dose ([5]; rat Male, 5 mg/kg, Day 28, mean (SE), N 3) was 1645 (126), the AUC/Dose ([5]; rat Male, 15 mg/kg, Day 28, mean (SE), N 3) was 2014 (178) and the AUC/Dose ([5]; rat Male, 45 mg/kg, Day 28, mean (SE), N 3) was 1446 (106). The “increase in AUC as compared to the free base” value ([5]; rat, dose range of 5 to 45 mg/kg) was “two-fold”, the “Solution pH” value [6, 28] was 5.11 and the “Aqueous Solubility” value [6, 28] was 0.37 mg/g. The “Solution pH” value [6, 29] was 5.10, the “Aqueous Solubility” value [6, 29] was 0.50 mg/g and the “Solution pH” value [6, 30] was 5.15. The “Aqueous Solubility” value [6, 30] was 0.44 mg/g, the solubility [7] was 0.37 mg/g and the pH ([7]; salt screen) was 5.11. For the same compound, the hygroscopicity ([7]; salt screen, in words) was “less hygroscopic”, the solubility ([8]; 2% Tween 80 in water, aqueous with cosolvent or surfactant or cyclodextrin) was 1120 µg/mL and the “pH of solution in 2% Tween 80 in water” value [8] was “(pH 5.06)”. The “pH of solution in Water” value [8] was “(pH 5.00)”, the solubility ([8]; water, pH 5, water) was 430 µg/mL and the “emectic receptor interaction / diarrhea” value [9] was “minimizes emectic receptor interactions in mammals”.

`CCOc1cc2ncc(C#N)c(Nc3ccc(OCc4ccccn4)c(Cl)c3)c2cc1NC(=O)/C=C/CN(C)C` [free base] showed a Cmax [5, 31] of 3820 ng/mL, an AUC(0-t) [5, 31] of 58300 ng·h/mL and a Cmax [5, 32] of 2440 ng/mL. It also gave an AUC(0-t) [5, 32] of 25000 ng·h/mL, a Cmax [5, 33] of 814 ng/mL and an AUC(0-t) [5, 33] of 6780 ng·h/mL. It also gave a Cmax ([5]; plasma, rat Male, 20 mg/kg, Day 1, mean (SE), N 4) of 1010 ng/mL, an AUC(0-inf) ([5]; plasma, rat Male, 20 mg/kg, Day 1, mean (SE), N 4, footnote a: AUC0-∞) of 8510 ng·h/mL and a Cmax [5, 34] of 1650 ng/mL. For the same compound, the AUC(0-t) [5, 34] was 20400 ng·h/mL, the systemic availability ([5]; rat) was 20% and the AUC/Dose ([5]; rat Female, 30 mg/kg, Day 10, mean (SE), N 3) was 832 (145). The AUC/Dose ([5]; rat Male, 10 mg/kg, Day 10, mean (SE), N 3) was 678 (64), the AUC/Dose ([5]; rat Male, 20 mg/kg, Day 1, mean (SE), N 4) was 426 (81) and the AUC/Dose ([5]; rat Male, 30 mg/kg, Day 10, mean (SE), N 3) was 680 (78). For the same compound, the AUC/Dose ([5]; rat Male, 100 mg/kg, Day 10, mean (SE), N 3) was 583 (125), the solubility [10] was 50 µg/mL (≈ 89.8 µM) and the “pH of solution in 2% Tween 80 in water” value [8] was “(pH 6.4)”. The “pH of solution in Water” value [8] was “(pH 8.2)”, the “Biopharmaceutical Classification System class” value ([11]; low water solubility and low permeability) was “BCS Class IV” and the solubility ([11]; water, at about pH 7) was about 1 µg/mL (≈ 1.8 µM). For the same compound, the “emectic receptor interaction / diarrhea” value [9] was “giving rise to diarrhea in mammals”.

With Fumarate the pH ([7]; salt screen) was 3.53.

For Tosylate, the pH ([7]; salt screen) was 4.72 and the solubility ([7]; salt screen, Table 1, water) was 6.89 mg/g.
